These results are taken from US8048915B2, “Biologically active complex” (BioMas Ltd., priority 2001, dated 2011).

Values joined by “and” are separate entries in the source; they are usually repeats but may differ in a detail not shown here. Equal values may be shown once. Read-outs that look alike come from different tables or passages of the source.

In one series the test system is IL-2. The conditions noted are these: 72 hours culture, 50% supernatant on CTLD cells. The text has this: Culture supernatants were collected, centrifuged and tested for IL-2 activity by using 50% of the volume of the supernatant assaying their ability to support the proliferation of the IL-2 dependent cell line CTLD.
In the next series the test system is mouse macrophages. Briefly: Survival of mouse macrophage monolayer incubated with complex.
The subject of another series is West Nile virus (WNV). The source says:
WNV is a toga virus of the flavivirus group, a positive single stranded RNA virus, which when injected IP to mice usually kills them within 5-8 days as a result of extensive damage to the central nervous system.

The test system of a further series is interleukin-2 (IL-2). The settings on record: single animals. As to the method:
The test animals were Balb-c, male, mice, 6 to 8 weeks of age. […] The animals received the following injections:
Each of groups a, b, c and d consisted of 21 animals. The animals were sacrificed daily from 24 h to 7 days after injection. On each day, spleen cells from three of the animals from each control group were pooled together and processed by passing the spleen cells through a 60 mesh stainless steel net in a 5 mm Petri dish containing PBS in order to separate the cells. The cells were collected and centrifuged at 1000 rpm for 10 minutes. The supernatant was discarded and the cells were treated for two minutes with 5 ml of hypotonic buffer (0.15M NH4 Cl, 0.01M KHCO3 dissolved in double distilled water, pH 7.2) to kill the erythrocytes. Thereafter, PBS was added to the cells and the cells were centrifuged for 10 minutes at 1000 rpm. The cells were washed twice with PBS and counted in a hemocytometer using trypan blue to test for viability. The cells were brought to a concentration of 10^7 cells/ml using enriched RPMI containing 10% fetal calf serum (Ser Lab, Sussex, England); 5×10^−5M 2-mercaptoethanol and 3% of d-glutamine (Bio Lab Israel); stock solution 2 mM×1000 nonessential amino acids (Bio Lab, Israel); stock solution×100 and sodium pyruvate (Bio Lab, Israel) stock solution 1 mM×100. An additional three animals from each of the experimental groups were sacrificed and each of the spleens was processed separately using the same procedure.
The cell mixture was divided into two groups:
Supernatants were collected, centrifuged at 1,600 rpm for 10 minutes and stored at 4° C. until used. […] These supernatants were assayed for CSF activity. Prior to incubation of the cells, samples were removed from culture plates and smears of the cultures were made by cytocentrifugation. Slides were stained with May-Grunwald-Giemsa (1:10) solution and evaluated morphologically. A radioactive thymidine assay was used to determine IL-2 activity. Assay for IL-2 Activity • 1. Supernatants were tested for IL-2 activity by the proliferation of the IL-2 dependent cell line CTLD. The IL-2 assay is based on the growth dependence of these cultured T-cell lines on IL-2. T cells harvested from IL-2 dependent culture, washed and placed back in culture in the absence of IL-2 invariably die within 24 hr. By using tritiated thymidine incorporation (^3H-TdR) as an index of cultured T-cell replication, the IL-2 microassay provides a highly reproducible and quantitative indication of the amount of IL-2 activity in the supernatant prepared hereinabove. • 2. To assay a condition medium for IL-2 activity, a sample containing 5 x 10^4 CTLD cells, 10% fetal calf serum and 50% of supernatant in question, all were suspended in a final volume of 1 ml RPMI. Aliquots of 0.2 ml from each sample were placed in four replicate wells of 96 microwell tissue culture plates (NUNC). Conditioned medium was obtained from cultures of Charles River rat spleen cells stimulated with Con A that contained a known amount of IL-2 as a reference in all assays. • 3. The microwells were incubated for 24 hr at 37° C. after which 1 microcurie/well of ^3H-methylthymidine was added. Cells were then further incubated overnight, harvested with a cell harvester, and counted in a beta scintillator.

Method for mouse macrophages: All cultures were then infected with 10^4 PFU/plate. After 72 h incubation the supernatants were collected and the virus was titrated against Vera cells.

With `Cl[Te]1(Cl)(Cl)OCCO1.N` [Example 1, equimolar complex of TeO2 and ethylene glycol, NH4Cl salt], the “IL-2 activity, Counts per minute” value with IL-2 (1 ng) is on record as 11,000 Counts per minute; with IL-2 (10 ng), 1,500 Counts per minute; with IL-2 (1 μg), 250 Counts per minute; with IL-2 (100 μg) it was 280 Counts per minute. In addition, the “state of macrophages after 24 h incubation” value in the series with mouse macrophages (1 μg and 0.1 μg (others)) is “remained unaffected”; in the series with mouse macrophages (5 μg) it was “died”. Also, the “susceptibility of West Nile virus infections in mice” value with West Nile virus (WNV) (mouse, in vivo) is listed as “susceptible”. The “# Alive/Total” value in the series on West Nile virus (WNV) (mouse, in vivo, ip) is reported as 3/5. For the same molecule, the “fate of the three survivors after day 8” value with West Nile virus (WNV) (second experiment, 10^3 IPLD50 virus + complex) is “Two out of the remaining three survived an additional 8 days, whereas the third remained alive without any manifestations of clinical symptoms”. Also, the IL-2 activity is 25.919 CPM and 34.326 CPM and 16.718 CPM in the series with interleukin-2 (IL-2) (1 μg IP in 0.2 ml DMSO/PBS, day 1); 21.398 CPM and 22.050 CPM and 9.338 CPM in the series on interleukin-2 (IL-2) (1 μg IP in 0.2 ml DMSO/PBS, day 2); 31.999 CPM and 14.226 CPM and 17.228 CPM in the series on interleukin-2 (IL-2) (1 μg IP in 0.2 ml DMSO/PBS, day 4); 41.261 CPM and 80.314 CPM and 42.485 CPM with interleukin-2 (IL-2) (1 μg IP in 0.2 ml DMSO/PBS, day 6); 66.854 CPM and 58.094 CPM and 51.268 CPM in the series on interleukin-2 (IL-2) (1 μg IP in 0.2 ml DMSO/PBS, day 7); 24.335 CPM and 21.193 CPM and 25.381 CPM in the series on interleukin-2 (IL-2) (10 μg IP in 0.2 ml DMSO/PBS, day 1). Besides, the IL-2 activity in the series on interleukin-2 (IL-2) (10 μg IP in 0.2 ml DMSO/PBS, day 2) is 31.901 CPM and 36.390 CPM and 22.066 CPM; in the series with interleukin-2 (IL-2) (10 μg IP in 0.2 ml DMSO/PBS, day 3) it was 20.316 CPM and 18.288 CPM and 12.126 CPM.
